In brackets after ≈: the same amount, converted by molar mass.
Experiments:
[1] = Solubility of the compound in fasted state simulated intestinal fluid at pH 6.8 incubated for 1 hr in shaker and subsequently equilibrated for 72 hrs by LC/MS analysis; type: physicochemical
[2] = Solubility of the compound in 0.01N HCl at pH 2 incubated for 1 hr in shaker and subsequently equilibrated for 72 hrs by LC/MS analysis; type: physicochemical
[3] = Solubility of the compound in phosphate buffer solution at pH 7.4 incubated for 1 hr in shaker and subsequently equilibrated for 72 hrs by LC/MS analysis; type: physicochemical
[4] = Apparent permeability in pig LLC-PK1 cells at 5 uM; type: ADME, cell-based, Sus scrofa
[5] = Volume of distribution at steady state in Sprague-Dawley rat; type: ADME; conditions: in vivo, read-out: Vdss
[6] = Oral bioavailability in Sprague-Dawley rat at 5 mg/kg; type: ADME, organism-based; conditions: in vivo
[7] = Volume of distribution at steady state in dog; type: ADME, Canis lupus familiaris; conditions: in vivo, read-out: Vdss
[8] = Drug uptake in plasma of SCID-Beige mouse xenografted with human KMS-12-BM cells at 25 to 100 mg/kg, po administered once daily for 14 days and measured twice per week; type: ADME, organism-based; conditions: in vivo, 336 h
[9] = Oral bioavailability in dog; type: ADME, organism-based, Canis lupus familiaris; conditions: in vivo

C[C@H]1NC(=O)c2cc(-c3cccc4c(=O)n(CC5CC5)c(NC(C)(C)C)nc34)[nH]c21
solubility thermodynamic at 72 h [1]: 12 µM (≈ 4.87 µg/mL)
solubility thermodynamic at 72 h [2]: < 5 µM
solubility thermodynamic at 72 h [3]: < 5 µM

C[C@H]1NC(=O)c2cc(-c3cccc4c(=O)n(CC5COC5)c(NC(C)(C)C)nc34)[nH]c21
solubility thermodynamic at 72 h [1]: 32 µM (≈ 13.5 µg/mL)
solubility thermodynamic at 72 h [2]: 14 µM (≈ 5.9 µg/mL)
solubility thermodynamic at 72 h [3]: 6 µM (≈ 2.53 µg/mL)

C[C@H]1NC(=O)c2cc(-c3cccc4c(=O)n(CC5(N)CC5)c(NC(C)(C)C)nc34)[nH]c21
solubility thermodynamic at 72 h [1]: 42 µM (≈ 17.7 µg/mL)
solubility thermodynamic at 72 h [2]: 500 µM (≈ 210 µg/mL)
solubility thermodynamic at 72 h [3]: < 5 µM

C[C@H]1NC(=O)c2cc(-c3cccc4c(=O)n(CC5CC5)c(NC5(C)CC5)nc34)[nH]c21
solubility thermodynamic at 72 h [1]: 179 µM (≈ 72.2 µg/mL)
solubility thermodynamic at 72 h [2]: 214 µM (≈ 86.3 µg/mL)
solubility thermodynamic at 72 h [3]: 13 µM (≈ 5.25 µg/mL)

C[C@H](c1cn(C)cn1)n1c(NC2(C)CC2)nc2c(-c3cc4c([nH]3)[C@@H](C)NC4=O)cccc2c1=O
solubility thermodynamic at 72 h [1]: 435 µM (≈ 199 µg/mL)
solubility thermodynamic at 72 h [2]: 485 µM (≈ 222 µg/mL)
solubility thermodynamic at 72 h [3]: 53 µM (≈ 24.2 µg/mL)

C[C@H]1NC(=O)c2cc(-c3cccc4c(=O)n(C[C@@H]5CN(C)CCO5)c(NC(C)(C)C)nc34)[nH]c21
solubility thermodynamic at 72 h [1]: 283 µM (≈ 131 µg/mL)
solubility thermodynamic at 72 h [2]: 500 µM (≈ 232 µg/mL)
solubility thermodynamic at 72 h [3]: 122 µM (≈ 56.7 µg/mL)

C[C@H]1NC(=O)c2cc(-c3cccc4c(=O)n(C)c(NC(C)(C)C)nc34)[nH]c21
solubility thermodynamic at 72 h [1]: 104 µM (≈ 38 µg/mL)
solubility thermodynamic at 72 h [2]: 60 µM (≈ 21.9 µg/mL)
Papp at 5 µM [4]: 46 ×10⁻⁶ cm/s
solubility thermodynamic at 72 h [3]: 23 µM (≈ 8.41 µg/mL)

C[C@H]1NC(=O)c2cc(-c3cccc4c(=O)n(CC(C)(C)N)c(NC(C)(C)C)nc34)[nH]c21
solubility thermodynamic at 72 h [1]: 131 µM (≈ 55.4 µg/mL)
solubility thermodynamic at 72 h [2]: 347 µM (≈ 147 µg/mL)
solubility thermodynamic at 72 h [3]: 26 µM (≈ 11 µg/mL)

C[C@H]1NC(=O)c2cc(-c3cccc4c(=O)n(C[C@H]5CCCO5)c(NC(C)(C)C)nc34)[nH]c21
solubility thermodynamic at 72 h [1]: 60 µM (≈ 26.1 µg/mL)
solubility thermodynamic at 72 h [2]: < 5 µM
solubility thermodynamic at 72 h [3]: 19 µM (≈ 8.28 µg/mL)

C[C@H]1NC(=O)c2cc(-c3cccc4c(=O)n(C[C@H]5CN(C)CCO5)c(NC(C)(C)C)nc34)[nH]c21
solubility thermodynamic at 72 h [1]: < 5 µM
solubility thermodynamic at 72 h [2]: 256 µM (≈ 119 µg/mL)
solubility thermodynamic at 72 h [3]: < 5 µM

C[C@H]1NC(=O)c2cc(-c3cccc4c(=O)n(C5CC5)c(NC5(C)CC5)nc34)[nH]c21
solubility thermodynamic at 72 h [1]: 144 µM (≈ 56.1 µg/mL)
solubility thermodynamic at 72 h [2]: 458 µM (≈ 178 µg/mL)
Papp at 5 µM [4]: 23 ×10⁻⁶ cm/s
Vd [5]: 1.2 L/kg
solubility thermodynamic at 72 h [3]: 78 µM (≈ 30.4 µg/mL)
bioavailability [6]: 68%

C[C@H]1NC(=O)c2cc(-c3cccc4c(=O)n(C[C@@H]5CCCO5)c(NC(C)(C)C)nc34)[nH]c21
solubility thermodynamic at 72 h [1]: 15 µM (≈ 6.53 µg/mL)
solubility thermodynamic at 72 h [2]: 28 µM (≈ 12.2 µg/mL)
solubility thermodynamic at 72 h [3]: 12 µM (≈ 5.23 µg/mL)

C[C@H]1NC(=O)c2cc(-c3cccc4c(=O)n(Cc5cn(C)cn5)c(NC(C)(C)C)nc34)[nH]c21
solubility thermodynamic at 72 h [1]: 131 µM (≈ 58.4 µg/mL)
solubility thermodynamic at 72 h [2]: 94 µM (≈ 41.9 µg/mL)
solubility thermodynamic at 72 h [3]: 22 µM (≈ 9.8 µg/mL)

C[C@H]1NC(=O)c2cc(-c3cccc4c(=O)n(C5CC5)c(NC(C)(C)C)nc34)[nH]c21
solubility thermodynamic at 72 h [1]: 175 µM (≈ 68.5 µg/mL)
solubility thermodynamic at 72 h [2]: 95 µM (≈ 37.2 µg/mL)
solubility thermodynamic at 72 h [3]: 13 µM (≈ 5.09 µg/mL)

C[C@H]1NC(=O)c2cc(-c3cccc4c(=O)n(CC5(O)CC5)c(NC5(C)CC5)nc34)[nH]c21
solubility thermodynamic at 72 h [1]: 15 µM (≈ 6.29 µg/mL)
solubility thermodynamic at 72 h [2]: 43 µM (≈ 18 µg/mL)
solubility thermodynamic at 72 h [3]: < 5 µM

CC(C)n1c(NC(C)(C)C)nc2c(-c3cc4c([nH]3)[C@@H](C)NC4=O)cccc2c1=O
solubility thermodynamic at 72 h [1]: 68 µM (≈ 26.8 µg/mL)
solubility thermodynamic at 72 h [2]: 26 µM (≈ 10.2 µg/mL)
solubility thermodynamic at 72 h [3]: 11 µM (≈ 4.33 µg/mL)

C[C@H]1NC(=O)c2cc(-c3cccc4c(=O)n(CC5(N)CC5)c(NC5(C)CC5)nc34)[nH]c21
solubility thermodynamic at 72 h [1]: 280 µM (≈ 117 µg/mL)
solubility thermodynamic at 72 h [2]: 454 µM (≈ 190 µg/mL)
solubility thermodynamic at 72 h [3]: 134 µM (≈ 56.1 µg/mL)

C[C@H]1NC(=O)c2cc(-c3cccc4c(=O)n(C5(C)CC5)c(NC5(C)CC5)nc34)[nH]c21
Vd [7]: 2.1 L/kg
Drug uptake [8]: Dose-dependent effect
solubility thermodynamic at 72 h [1]: 185 µM (≈ 74.6 µg/mL)
bioavailability [9]: 56%
solubility thermodynamic at 72 h [2]: 490 µM (≈ 198 µg/mL)
Papp at 5 µM [4]: 32 ×10⁻⁶ cm/s
Vd [5]: 1.7 L/kg
solubility thermodynamic at 72 h [3]: 31 µM (≈ 12.5 µg/mL)
bioavailability [6]: 85%

C[C@H]1NC(=O)c2cc(-c3cccc4c(=O)n([C@@H](C)c5cn(C)cn5)c(NC5(C)CC5)nc34)[nH]c21
solubility thermodynamic at 72 h [1]: 469 µM (≈ 215 µg/mL)
solubility thermodynamic at 72 h [2]: 464 µM (≈ 212 µg/mL)
Papp at 5 µM [4]: 35 ×10⁻⁶ cm/s
Vd [5]: 1 L/kg
solubility thermodynamic at 72 h [3]: 60 µM (≈ 27.5 µg/mL)
bioavailability [6]: 19%

C[C@H]1NC(=O)c2cc(-c3cccc4c(=O)n(C)c(NC5(C)CC5)nc34)[nH]c21
solubility thermodynamic at 72 h [1]: 344 µM (≈ 125 µg/mL)
solubility thermodynamic at 72 h [2]: 500 µM (≈ 182 µg/mL)
Papp at 5 µM [4]: 31 ×10⁻⁶ cm/s
solubility thermodynamic at 72 h [3]: 56 µM (≈ 20.4 µg/mL)

C[C@H]1NC(=O)c2cc(-c3cccc4c(=O)n(C5(C)CC5)c(NC(C)(C)C)nc34)[nH]c21
solubility thermodynamic at 72 h [1]: 36 µM (≈ 14.6 µg/mL)
solubility thermodynamic at 72 h [2]: < 5 µM
solubility thermodynamic at 72 h [3]: < 5 µM

C[C@H]1NC(=O)c2cc(-c3cccc4c(=O)n(C5CCC5)c(NC5(C)CC5)nc34)[nH]c21
solubility thermodynamic at 72 h [1]: 379 µM (≈ 153 µg/mL)
solubility thermodynamic at 72 h [2]: 441 µM (≈ 178 µg/mL)
solubility thermodynamic at 72 h [3]: < 5 µM

CC(c1cn(C)cn1)n1c(NC2(C)CC2)nc2c(-c3cc4c([nH]3)[C@@H](C)NC4=O)cccc2c1=O (mixture of isomers)
solubility thermodynamic at 72 h [1]: 500 µM
solubility thermodynamic at 72 h [2]: 500 µM
solubility thermodynamic at 72 h [3]: 52 µM

C[C@H]1NC(=O)c2cc(-c3cccc4c(=O)n(C(C)(C)C)c(NC(C)(C)C)nc34)[nH]c21
solubility thermodynamic at 72 h [1]: 58 µM (≈ 23.6 µg/mL)
solubility thermodynamic at 72 h [2]: < 5 µM
solubility thermodynamic at 72 h [3]: < 5 µM

CC(c1cn(C)cn1)n1c(NC(C)(C)C)nc2c(-c3cc4c([nH]3)[C@@H](C)NC4=O)cccc2c1=O (stereo not given in full)
solubility thermodynamic at 72 h [1]: 489 µM (≈ 225 µg/mL)
solubility thermodynamic at 72 h [2]: 423 µM (≈ 194 µg/mL)
solubility thermodynamic at 72 h [3]: 86 µM (≈ 39.5 µg/mL)

C[C@H]1NC(=O)c2cc(-c3cccc4c(=O)n(CC5(O)CC5)c(NC(C)(C)C)nc34)[nH]c21
solubility thermodynamic at 72 h [1]: < 5 µM
solubility thermodynamic at 72 h [2]: < 5 µM
solubility thermodynamic at 72 h [3]: < 5 µM

C[C@H]1NC(=O)c2cc(-c3cccc4c(=O)n(C(C)(C)C)c(NC5(C)CC5)nc34)[nH]c21
solubility thermodynamic at 72 h [1]: 326 µM (≈ 132 µg/mL)
solubility thermodynamic at 72 h [2]: 495 µM (≈ 201 µg/mL)
solubility thermodynamic at 72 h [3]: < 5 µM
